ChEMBL document CHEMBL3045778, “Production of bacillomycin- and macrolactin-type antibiotics by Bacillus amyloliquefaciens NJN-6 for suppressing soilborne plant pathogens” (2012)

Tests used:
[1] = system: Fusarium oxysporum f. sp. cubense; assay: Antifungal activity against soil-borne Fusarium oxysporum f. sp. cubense race 4 assessed as growth inhibition at 50 uL at 28 degC for 4 days; assay type: functional
Ralstonia solanacearum = assay: Antibacterial activity against Ralstonia solanacearum race 1 assessed as growth inhibition at 50 uL at 28 degC for 3 days; assay type: functional

Compound | diameter of the inhibition zone (DIZ) [1] [cm] | diameter of the inhibition zone (DIZ) (Ralstonia solanacearum) [cm]
CCC(C)CCCCCCCCC1CC(=O)N[C@@H](CC(=O)O)C(=O)N[C@H](Cc2ccc(O)cc2)C(=O)N[C@H](CC(N)=O)C(=O)N2CCC[C@H]2C(=O)N[C@@H](CCC(=O)O)C(=O)N[C@H](CO)C(=O)N[C@@H]([C@@H](C)O)C(=O)N1 (stereo not given in full) [BACILLOMYCIN D(C15)] | 0.7 | –
C[C@@H]1CCC/C=C/C=C/[C@H](O)C[C@@H](O)C/C=C\C=C\[C@@H](OC(=O)CCC(=O)O)C/C=C/C=C\C(=O)O1 [7-O-SUCCINYL MACROLACTIN A] | – | 1.3
C[C@@H]1CCC/C=C/C=C/[C@H](O)C[C@@H](O)C/C=C\C=C\[C@@H](O)C/C=C/C=C\C(=O)O1 [MACROLACTIN A] | – | 1.2
CC(C)CCCCCCCCC1CC(=O)N[C@@H](CC(=O)O)C(=O)N[C@H](Cc2ccc(O)cc2)C(=O)N[C@H](CC(N)=O)C(=O)N2CCC[C@H]2C(=O)N[C@@H](CCC(=O)O)C(=O)N[C@H](CO)C(=O)N[C@@H]([C@@H](C)O)C(=O)N1 (stereo not given in full) [BACILLOMYCIN D(C14)] | 0.6 | –
C[C@@H]1CCC/C=C/C=C/[C@H](O)C[C@@H](O)C/C=C\C=C\[C@@H](OC(=O)CC(=O)O)C/C=C/C=C\C(=O)O1 [7-O-MALONYL MACROLACTIN A] | – | 1
